# From patent US20090149395A1, “NOVEL MACROCYCLIC POLYENE LACTAMS” (priority 2007, published 2009)
# Like-named read-outs stand apart in the source and are kept apart here.
# What was measured:
# [1] = tested on: NIH3T3 mouse embryonic fibroblasts; experiment: Mammalian cytotoxicity assay (CellTiter 96 AQueous One); assay type: cell-based; conditions: NIH3T3 cells, 24 hr, highest tested 16 μg/ml
# Experimental: Mammalian cytotoxicity assays were performed using NIH3T3 mouse embryonic fibroblasts (ATCC CRL-1658), and cytotoxicity was measured using the CellTiter 96® AQueous One Solution Cell Proliferation Assay (Promega, Madison, Wis., Cat: G3582), according to the manufacturer's recommendations.
# 100× working stocks of 2-fold serial dilution of NOVO4 in DMSO were created in a 96 well format. The highest concentration of the 100× concentration (working stock) was prepared by adding […] of the stock solution of NOVO4 (10 mg/ml in DMSO) for every 0.68 μl of DMSO to well A02. 0.5 μl of this 100× stock was added for every 0.5 μl of DMSO in well A03 to create a total of 7 two-fold serial dilution series, from 1600 μg/ml to 25 μg/ml (from highest in well A02 to A08,). A DMSO control was also included (wells in column A01, and A12). […]
# The plate was visually inspected under a dissecting microscope, and the absorbance at 490 nm was read using a Spectramax Plus Spectrophotometer, with wells A12, and B12 reserved as blanks. The signal of compound alone (well A11) was verified not to contribute to the absorbance at this wavelength. Next, 20 μl of the CellTiter 96® AQueous One Solution Cell Proliferation Assay (Promega, Madison, Wis., Cat: G3582) was added to each well, and the plate was read after 3 hr of incubation. […]
# MRSA NRS108 = experiment: MIC broth dilution; assay type: cell-based, Methicillin-resistant Staphylococcus aureus; conditions: Staphylococcus aureus
# MRSA NRS1 = experiment: MIC broth dilution; assay type: cell-based, Methicillin-resistant Staphylococcus aureus; conditions: Staphylococcus aureus
# E. faecium E4So1 = experiment: MIC broth dilution; assay type: cell-based; conditions: Enterococcus faecium
# B. anthracis sterne = experiment: microbe, parasite or virus in culture; assay type: cell-based; conditions: Bacillus anthracis
# E. faecium (VRE JM89) = experiment: MIC broth dilution; assay type: cell-based; conditions: Enterococcus faecium
# MRSA and VRE = experiment: Effect of serum on NOVO4 MIC; assay type: cell-based; conditions: MIC without serum compared to media with 10% calf bovine serum
# Experimental: These studies follow the procedure for determining the MIC described above in Example 5. Briefly, two-fold serial dilution of the NOVO4 compound are added to the test cells of interest, MRSA and VRE, and the lowest concentration of compound that inhibits growth after a period of incubation is considered to be the MIC. To determine the effect of serum on the activity of NOVO4, MIC in the absence of serum is compared to MIC in media supplemented with 10% calf bovine serum (ATCC 30-2030).
# bacterial cells = experiment: Solid agar growth inhibition zone assay; assay type: cell-based; conditions: MHB agar, 5 μl spot, 16 hr to 24 hr incubation; strain not named
# Experimental: This can be achieved in different assay format; bacteria growing on solid agar media or bacteria growing in broth such as for Example 5 and 6 (Minimal Inhibition Concentration).
# For solid agar format, bacterial cells are first grown in a suitable media such as Mueller Hinton broth (MHB) until exponential phase (OD600<1.0). The cells are diluted back to OD600=0.02 in MHB, and evenly applied as a thin layer on the surface of a plate of solid growth media, such as MHB agar (about 0.1 ml onto a surface area of 100 cm^2). After the surface is dried, a 5 μl aliquot of a 2-fold serial dilution of NOVO4 (in 50% DMSO) is spotted onto the surface of the agar plate. After 16 hr to 24 hr of incubation, depending on the bacterial strain of interest, the diameter of zones of growth inhibition is measured.
# E. faecium MG1953 = experiment: MIC broth dilution; assay type: cell-based; conditions: Enterococcus faecium
# E. faecalis (VRE BM4147) = experiment: MIC broth dilution; assay type: cell-based; conditions: Enterococcus faecalis
# S. pneumoniae BAA225 = experiment: MIC broth dilution; assay type: cell-based; conditions: Streptococcus pneumoniae
# MSSA (ATCC 13709) = experiment: MIC broth dilution; assay type: cell-based, Staphylococcus aureus
# B. subtilis 1A1 = experiment: MIC broth dilution; assay type: cell-based; conditions: Bacillus subtilis, 1A1, B. subtilis 1A1
# human red blood cells = assay type: cell-based
# Experimental: The effect of NOVO4 on the hemolysis of human red blood cells was also tested. A total of 10 ml of expired packed red blood cells from the blood bank was gently added to 80 ml of PBS (Phosphate buffered saline), and pelleted at 1000 g for 5 minutes at 4° C. The upper phase and buffy layer (white blood cells) were removed. The cells are repeatedly washed by gentle mixing with PBS, and centrifugation until the upper phase is clear. In the last wash, 40 ml of 1×PBS with 0.05% BSA was added to half of the red blood cells while 40 ml of 1×PBS without BSA was added to the other half. The upper phase of the last wash was removed to leave a total volume of about 10 ml. The concentration of the red blood cells was measured by using the spectrophometer at 600 nm. An aliquot of the cells are diluted to a final density OD600 of 24 in 1×PBS, and another to a final density OD600 of 24 in 1×PBS with 0.05% BSA.
# The compound NOVO4 is two-fold serially diluted (similar to that described above for mammalian NIH3T3 cytotoxicity assay) as 100× concentration in DMSO, ranging from 0.4 μg/ml to 400 μg/ml. […] After thorough mixing, the A450 was read using a Spectramax Plus Spectrophotometer, using wells with only 1×PBS as blanks. […]
compound,measurement,setting,value
CC1\C=C/C=C\C=C/C=C\C=C/C(OC2OCC(O)C(O)C2N)C(C)(O)/C=C/C=C\C=C/C=C/C(=O)NC1 (stereo not shown) [NOVO4],LD50,[1],> 16 µg/mL
same,MIC,MRSA NRS108; MHB,1 to 8 µg/mL
same,MIC,MRSA NRS108; MHB + 0.05% BSA,2 µg/mL
same,MIC,MRSA NRS108; MHB + 10% FCS,0.5 to 2 µg/mL
same,MIC,MRSA NRS1; MHB,2 to 4 µg/mL
same,MIC,MRSA NRS1; MHB + 0.05% BSA,0.5 µg/mL
same,MIC,MRSA NRS1; MHB + 10% FCS,1 µg/mL
same,MIC,E. faecium E4So1; MHB,2 µg/mL
same,MIC,E. faecium E4So1; MHB + 0.05% BSA,1 µg/mL
same,MIC,E. faecium E4So1; MHB + 10% FCS,1 µg/mL
same,MIC,B. anthracis sterne; MHB,0.25 to 0.5 µg/mL
same,MIC,B. anthracis sterne; MHB + 0.05% BSA,0.125 to 0.5 µg/mL
same,MIC,B. anthracis sterne; MHB + 10% FCS,0.25 to 0.5 µg/mL
same,MIC,E. faecium (VRE JM89); MHB,4 µg/mL
same,MIC,E. faecium (VRE JM89); MHB + 0.05% BSA,2 µg/mL
same,MIC,E. faecium (VRE JM89); MHB + 10% FCS,2 µg/mL
same,solubility,physchem; aqueous with cosolvent or surfactant or cyclodextrin,300 µg/mL
same,solubility,physchem; organic solvent or mixture,> 5000 µg/mL
same,effect of calf bovine serum on the MIC,MRSA and VRE,no significant effect
same,minimal concentration in which a 5 μL aliquot spotted onto a lawn of growing bacteria results in an observable zone of no growth,bacterial cells,0.67 µg/mL
same,MIC,E. faecium MG1953; MHB,2 to 4 µg/mL
same,MIC,E. faecium MG1953; MHB + 0.05% BSA,1 to 2 µg/mL
same,MIC,E. faecium MG1953; MHB + 10% FCS,2 µg/mL
same,MIC,E. faecalis (VRE BM4147); MHB,2 to 4 µg/mL
same,MIC,E. faecalis (VRE BM4147); MHB + 0.05% BSA,1 to 2 µg/mL
same,MIC,E. faecalis (VRE BM4147); MHB + 10% FCS,2 µg/mL
same,MIC,S. pneumoniae BAA225; MHB,1 to 2 µg/mL
same,MIC,S. pneumoniae BAA225; MHB + 0.05% BSA,1 to 2 µg/mL
same,MIC,S. pneumoniae BAA225; MHB + 10% FCS,2 to 4 µg/mL
same,MIC,MSSA (ATCC 13709); MHB + 0.05% BSA,0.25 µg/mL
same,MIC,"MSSA (ATCC 13709); Staphylococcus aureus, MHB + 10% FCS",0.25 to 0.5 µg/mL
same,MIC,"MSSA (ATCC 13709); Staphylococcus aureus, MHB, read-out: MIC",0.25 µg/mL
same,MIC,B. subtilis 1A1; MHB,0.06 to 1 µg/mL
same,MIC,B. subtilis 1A1; MHB + 0.05% BSA,0.125 µg/mL
same,MIC,B. subtilis 1A1; MHB + 10% FCS,0.06 to 0.5 µg/mL
Triton X100,A450 (hemoglobin released),human red blood cells,0.41
same,lysis of red blood cells,human red blood cells,complete lysis
